Here are results for one compound from patent publication US20220041578A1, “ISOINDOLINE COMPOUND, AND PREPARATION METHOD, PHARMACEUTICAL COMPOSITION, AND APPLICATION OF ISOINDOLINE COMPOUND” (Shanghai Institute of Meteria Medica, Chinese Academy of …, priority 2018, published 2022).

Molecules are shown by their SMILES. Some results are limits rather than exact numbers.

Common to all, as to type: cell-based
For assay [1], the system named is Colorectal cancer cells HCT-116. The experiment in a line: Proliferation of other tumor cells, HCT-116 (WST-8). Particulars: Homo sapiens, 96 h, HCT-116 cells, 4 days, read-out: Inhibitory activity on proliferation, HCT-116 (IC50). Here is the method: (§1) The human triple negative breast cancer cells MDA-MB-468 and MDA-MB-231 used in this experiment were purchased from the Shanghai Cell Bank, in which L-15 medium added with 10% fetal bovine serum (FBS) and 1% double antibody was used. At 37° C., MDA-MB-468 and MDA-MB-231 cells were cultured in an incubator without CO2. Colorectal cancer cells HCT-116 were cultured in McCOY's 5A medium with 1% double antibody and 10% fetal bovine serum (FBS); prostate cancer cells DU145 were cultured in MEM medium with 1% double antibody and 10% fetal bovine serum (FBS); prostate cancer cells PC-3 were cultured in F-12 K medium with 1% double antibody and 10% fetal bovine serum (FBS); grew at 37° C., 5% CO2.
(§2) In the cell activity test experiment, 90 μL cell suspension with appropriate concentration was added to a 96-well cell culture plate according to the cell growth, each compound to be tested was gradient diluted with the corresponding medium, 10 μL diluted compound was added to 90 μL cells, and then incubated at 37° C. for 4 days. Cell proliferation was analyzed by WST-8, which could be reduced by lactate dehydrogenase in the cells to a yellow formazan. 10 μL of WST-8 reagent (DOJINDO) was added to the cells and reacted for more than 1 hour at 37° C., DMSO-treated cells were used as […]. The absorption value of 490 nm was read by enzyme-labeled plate, and the absorption value of 690 nm was taken as the background value, and OD490-OD690 was taken as the final original data, and the data was processed by GraphPad Prism6 software. The formula for calculating the inhibition rate of the compound was: inhibition rate=(ODDMSO−ODcompound)/(ODDMSO−Oblank)×100%. The compound's proliferation inhibition IC50 was fitted by Graph Pad Prism 5.0. The experiment was repeated three times, and three parallel experiments were used to calculate the average and standard deviation each time. The cell viability test results were shown in Table 4: A means cell viability IC50<1 μM, B means cell viability 1 μM≤IC50≤20 μM, C means cell viability IC50>20 μM, NT means not tested.
Background: Tetrazolium assays rely on reduction of a dye to a coloured formazan, in cell work by metabolically active cells.

The subject of the next assay is IFNγ. Briefly: IFNγ expression change in anti-human CD3 stimulated PBMC (ELISA). Particulars: compound 10 nM, anti-human CD3 10 ug/ml, 24 hours. As to the method: (§3) All operations of this experiment were carried out according to the conventional experimental process of this kind of experiment at present. Peripheral blood from healthy volunteers was collected by routine standard procedure and cultured in 1640 medium (+10% FBS) to obtain PBMC. After recovery, PBMC was centrifuged and resuspended in serum-free medium. After counting, adjusted the density to be 6.25×10^5/ml; then inoculated 160 ul to a 96-well plate, 2 holes each, 1×10^5/well; 20 ul 10× compound and DMSO were added, and incubated for 1 hour in an incubator; then 20 ul 10× anti-human CD3 was added resulting the final concentration of 10 ug/ml and incubated in an incubator for 24 hours. Centrifuged the cell plate at 1500 rpm and aspirated 50 ul supernatant according to the ELISA operation. After operating according to the kit, a microplate reader was used to read at 450 nm. The concentration of compound was 10 nM, and DMSO was added as control group. Materials used in this experiment: 96 well plate (Corning, #3599), ELISA kit (Thermo), LPS (Sigma, USA). It was found from the test results of the following table that the compounds of the examples of the present invention could be used to regulate the expression of IFNγ.
For orientation: In an ELISA, binding on a coated surface is turned into a signal by an enzyme label.

In assay [2] the test system is prostate cancer cells DU145. The experiment in a line: Proliferation of other tumor cells, DU145 (WST-8). As to conditions: Homo sapiens, DU-145, 96 h, 4 days, read-out: Inhibitory activity on proliferation, DU145 (IC50). As to the method:
as §1, §2

The next assay concerns IL-2. Briefly: IL-2 expression change in anti-human CD3 stimulated PBMC (ELISA). As to conditions: compound 10 nM, anti-human CD3 10 ug/ml, 24 hours. As to the method: as §3, with “USA).” for “USA). It was found from the test results of the following table that the compounds of the examples of the present invention could be used to regulate the expression of IFNγ.”
The test system of a further assay is Mino cells. The experiment in a line: Effect of the compound on the proliferation of Mino cells (MTS). As to conditions: Homo sapiens, 72 h, 3 days, read-out: Inhibitory activity (IC50). The method in brief:
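Mino cells, 8000/well, treated 3 days at 37 °C/5% CO2 with 5-fold compound dilutions from 10 mM stock (0.2% DMSO final). MTS added for 3-4 h; OD490 minus OD690 read, inhibition relative to DMSO and blank, IC50 fitted. Three repeats, each in triplicate.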

The subject of assay [3] is prostate cancer cells PC-3. Briefly: Proliferation of other tumor cells, PC-3 (WST-8). As to conditions: Homo sapiens, 96 h, PC-3 cells, 4 days, read-out: Inhibitory activity on proliferation, PC-3 (IC50). Here is the method: as §1, §2
Assay [4] deals with triple negative breast cancer cells MDA-MB-231. Briefly: Proliferation of other tumor cells, MDA-MB-231 (WST-8). Particulars: Homo sapiens, 96 h, MDA-MB-231 cells, 4 days, read-out: Inhibitory activity on proliferation, MDA-MB-231 (IC50). As to the method: as §1, §2

For the compound `Nc1cccc2c1CN(C1CCC(=O)NC1=O)C2=O` (stereo not shown) [Lenalidomide, lenalidomide, reference compound], the IC50 (in assay [1]; in assay [2]; in the assay on Mino cells; in assay [3]; in assay [4]) was greater than 20 µM each time. For the same compound, the “Increase multiple of IFNγ expression” value with IFNγ is reported as greater than 1.5. In addition, the “Increase multiple of IL-2 Expression” value in the assay with IL-2 is given as greater than 3.
